The supplement of paper PMC10307832

What was measured:
Assay in all cases: relative viability (nuclei count vs DMSO), 5 days (fraction); higher = more cells survive
[1] = compound: CN(C)CC1=CC(=CC=C1)N=C(C2=CC=CC=C2)C3=C(NC4=C3C=CC(=C4)C(=O)N(C)C)O + C[C@@H](Oc1cc(-c2cnn(C3CCNCC3)c2)cnc1N)c1c(Cl)ccc(F)c1Cl [Crizotinib] (partner 1 µM)
Procedure, shortened: (§1)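 Medians of duplicate plates are given as relative viability. That measure is the nuclei count in treated wells divided by the count in vehicle wells. Counts were taken on 4× images of lung cancer cell lines in 1536-well plates, 5 days after pin-tool dosing the day after seeding with one drug alone or a fixed anchor-drug dose plus five library-drug doses (not always all listed) in √10 steps.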

[2] = compound: CN(C)CC1=CC(=CC=C1)N=C(C2=CC=CC=C2)C3=C(NC4=C3C=CC(=C4)C(=O)N(C)C)O + CC(=O)Nc1cccc(-n2c(=O)n(C3CC3)c(=O)c3c(Nc4ccc(I)cc4F)n(C)c(=O)c(C)c32)c1 [Trametinib] (partner 0.02 µM)
Procedure, shortened: as §1

[3] = compound: CN(C)CC1=CC(=CC=C1)N=C(C2=CC=CC=C2)C3=C(NC4=C3C=CC(=C4)C(=O)N(C)C)O + N=C(N)NC(=N)NCCc1ccccc1 [Phenformin] (partner 250 µM)
Procedure, shortened: as §1

[4] = compound: CN(C)CC1=CC(=CC=C1)N=C(C2=CC=CC=C2)C3=C(NC4=C3C=CC(=C4)C(=O)N(C)C)O + COc1cccc2cc(-c3nc([C@H]4CC[C@H](C(=O)O)CC4)n4ncnc(N)c34)[nH]c12 [OSI-027] (partner 0.5 µM)
Procedure, shortened: as §1

Cell Line	relative viability ([1]; first compound 0.08 µM)	relative viability ([1]; first compound 0.253 µM)	relative viability ([1]; first compound 0.8 µM)	relative viability ([1]; first compound 2.53 µM)	relative viability ([1]; first compound 8 µM)	relative viability ([2]; first compound 0.08 µM)	relative viability ([2]; first compound 0.253 µM)	relative viability ([2]; first compound 0.8 µM)	relative viability ([2]; first compound 2.53 µM)	relative viability ([2]; first compound 8 µM)	relative viability ([3]; first compound 0.08 µM)	relative viability ([3]; first compound 0.253 µM)	relative viability ([3]; first compound 0.8 µM)	relative viability ([3]; first compound 2.53 µM)	relative viability ([3]; first compound 8 µM)	relative viability ([4]; first compound 0.08 µM)	relative viability ([4]; first compound 0.253 µM)	relative viability ([4]; first compound 0.8 µM)	relative viability ([4]; first compound 2.53 µM)	relative viability ([4]; first compound 8 µM)
NCI-H2405	0.808	0.822	0.827	0.775	0.758	0.642	0.634	0.593	0.605	0.535	0.358	0.387	0.378	0.347	0.249	0.629	0.653	0.618	0.57	0.544
NCI-H3122	0.281	0.286	0.246	0.318	0.29	0.225	0.203	0.235	0.245	0.243	0.386	0.38	0.391	0.302	0.354	1.01	0.962	1.41	1.06	0.933
PC-3 [JPC-3]	0.968	0.983	0.824	0.985	1.07	0.709	0.681	0.653	0.678	0.702	0.446	0.485	0.428	0.46	0.496	0.718	0.792	0.73	0.802	0.746
PC-14	0.948	0.885	0.842	0.786	1.01	0.932	0.904	0.968	0.8	0.76	0.572	0.545	0.617	0.602	0.734	0.913	0.85	0.968	0.734	0.563
RERF-LC-KJ	0.855	0.771	0.707	0.887	0.754	0.911	0.837	0.844	0.907	0.846	0.434	0.424	0.412	0.409	0.398	0.575	0.613	0.537	0.583	0.542
SK-LU-1	1	1.08	0.982	0.825	0.613	0.448	0.446	0.459	0.445	0.385	0.41	0.573	0.597	0.473	0.39	0.373	0.366	0.429	0.346	0.244
SK-MES-1	0.946	1.03	0.956	0.883	0.939	0.524	0.576	0.588	0.497	0.406	0.646	0.597	0.645	0.612	0.522	0.618	0.689	0.635	0.534	0.533
SW 1573	0.842	0.854	0.672	0.866	0.794	0.56	0.572	0.587	0.637	0.515	0.322	0.31	0.378	0.294	0.31	0.581	0.644	0.626	0.638	0.521
UMC-11	0.62	0.711	0.662	0.468	0.588	0.836	0.674	0.716	0.576	0.742	0.332	0.311	0.309	0.301	0.253	0.492	0.489	0.565	0.404	0.368
